In the first assay the test system is Caenorhabditis elegans. Briefly: C. elegans L1 nematicidal dose response in 96-well plates, 5 day visual score (Example 2; same procedure for Example 7, Table 3). It is filed as in vivo. The note with it: Follow-up HTS run. The arrangement: key to 5 Day Visual Score V1 / 5 Day Visual Score V2 / 5 Day Visual Score V3 / 5 Day Visual Score V4 / 5 Day Visual Score V6 / 5 Day Visual Score V5 / Initial HTS Run Visual Score / Follow-up HTS Run Visual Score: Dead: only stiff L1s (no movement); Dead (L4): worms are dead, but at a later larval stage; majority of worms are L1 (based on size) worms move when plate is tapped; majority of worms are L2 (based on size); majority of worms are L3 (based on size); majority of worms are L4 (based on size); AD: majority of worms are adult; #AD: 5 adult worms or less; B!: sterile (0-25 progeny); B: low broodsize (25-100 progeny); ˜B: moderate broodsize (100-250 progeny); <: reduced broodsize (250-500 progeny); OK: no effect (˜1000+ progeny). The procedure:
Caenorhabditis elegans adults were grown on Nematode Growth Medium (NGM) until they produced eggs, then the adults were removed.
The eggs were allowed to hatch, and the L1 larvae collected. See The Nematode Caenorhabditis elegans (1988) Cold Spring Harbor Laboratory Press. Using a Matrix Programmable Pipette, the L1s were distributed into 96-well tissue culture plates, 20 L1 in 50 μl NGM per well. Antibiotic/Antimyoticwas added to each well, and 1% by weight E. coli strain HB101. The subject anthelmintic compounds were stored at 5 mM in 100% DMSO. 0.7 μl of compounds 1-31 were added to the left-most column of wells to yield a final concentration of 70 μM in 1.4% DMSO, with 1.4% DMSO only as the control. The compounds were then subjected to 5 more 3-fold dilutions from left to right to yield 6 column concentrations of 70 μM, 23.3 μM, 7.8 μM, 2.6 μM, 0.9 μM, and 0.3 μM. Plates were stored in air-tight Rubbermaid plastic boxes at 20° C. The nematodes had cleared all control wells by day 4, and nematode viability was scored by visual examination under a 100× dissecting microsope on day 5. A visual viability scoring system was used as follows:
Column V1 has a compound concentration of 70 μM with sequential 3-fold dilutions reported in columns V2, V3, V4, V5, and V6, respectively, such that the V6 concentration was 0.3 μM.
The nematicidal activity of anthelmintic Compositions 48-168 were determined in accordance with the procedure outlined in Example 2.
With `FC(F)(F)c1cccc(N2CCN(c3nc(NCC4CCCCC4)ns3)CC2)c1` [compound 226], the “Follow-up HTS Run % Run” value is 104% and the “Follow-up HTS Run mOD” value is 167 mOD.

Regarding `Cc1cccc(C)c1N1CCN(c2nsc(N3CCN(c4c(C)cccc4C)CC3)n2)CC1` [compound 227], the “Follow-up HTS Run % Run” value was found to be 91%, the “Follow-up HTS Run Visual Score” value was “Dead” and the “Follow-up HTS Run mOD” value is 146 mOD.

With `CCN(c1nc(N2CCN(c3c(C)cccc3C)CC2)ns1)C1CCCCC1` [compound 228], the “Follow-up HTS Run % Run” value came out at 73%, the “Follow-up HTS Run Visual Score” value was “Dead/1L4/1AD” and the “Follow-up HTS Run mOD” value was determined as 118 mOD.

For the compound `CCCCCCCCCCCCCCCCCCN(C)c1nc(N2CCN(c3c(C)cccc3C)CC2)ns1` [compound 229], the “Follow-up HTS Run % Run” value worked out at 81%, the “Follow-up HTS Run Visual Score” value was determined as 5AD/B and the “Follow-up HTS Run mOD” value is listed as 130 mOD.

With `CCCCC(CC)CN(CC(CC)CCCC)c1nc(N2CCN(c3c(C)cccc3C)CC2)ns1` (stereo not shown) [compound 230], the “Follow-up HTS Run % Run” value is 63%, the “Follow-up HTS Run Visual Score” value amounted to 3AD/B and the “Follow-up HTS Run mOD” value worked out at 101 mOD.

Still in this assay, the particulars now being: Initial HTS run.
For `FC(F)(F)c1cccc(N2CCN(c3nc(NCC4CCCCC4)ns3)CC2)c1` [compound 226], the “Initial HTS Run % Run” value is given as 107% and the “Initial HTS Run mOD” value came to 118 mOD.

`Cc1cccc(C)c1N1CCN(c2nsc(N3CCN(c4c(C)cccc4C)CC3)n2)CC1` [compound 227]: the “Initial HTS Run % Run” value is 107%, the “Initial HTS Run Visual Score” value is “Dead” and the “Initial HTS Run mOD” value is on record as 118 mOD.

Take `CCN(c1nc(N2CCN(c3c(C)cccc3C)CC2)ns1)C1CCCCC1` [compound 228]: the “Initial HTS Run % Run” value worked out at 107%, the “Initial HTS Run Visual Score” value stood at 1AD/B! and the “Initial HTS Run mOD” value was 118 mOD.

With `CCCCCCCCCCCCCCCCCCN(C)c1nc(N2CCN(c3c(C)cccc3C)CC2)ns1` [compound 229], the “Initial HTS Run % Run” value is given as 125%, the “Initial HTS Run Visual Score” value is on record as “Dead” and the “Initial HTS Run mOD” value came out at 137 mOD.

Consider `CCCCC(CC)CN(CC(CC)CCCC)c1nc(N2CCN(c3c(C)cccc3C)CC2)ns1` (stereo not shown) [compound 230], for which the “Initial HTS Run % Run” value is on record as 121%, the “Initial HTS Run Visual Score” value is reported as “Dead/1AD/B!” and the “Initial HTS Run mOD” value was determined as 133 mOD.

Still in this assay, the particulars now being: dose response, dilution V1, day 5.
Take `FC(F)(F)c1cccc(N2CCN(c3nc(NCC4CCCCC4)ns3)CC2)c1` [compound 226]: the “5 Day Visual Score V1” value is on record as “L1”.

Regarding `Cc1cccc(C)c1N1CCN(c2nsc(N3CCN(c4c(C)cccc4C)CC3)n2)CC1` [compound 227], the “5 Day Visual Score V1” value is given as “Dead”.

Take `CCN(c1nc(N2CCN(c3c(C)cccc3C)CC2)ns1)C1CCCCC1` [compound 228]: the “5 Day Visual Score V1” value was “Dead”.

Take `CCCCCCCCCCCCCCCCCCN(C)c1nc(N2CCN(c3c(C)cccc3C)CC2)ns1` [compound 229]: the “5 Day Visual Score V1” value was “Dead”.

Turning to `CCCCC(CC)CN(CC(CC)CCCC)c1nc(N2CCN(c3c(C)cccc3C)CC2)ns1` (stereo not shown) [compound 230], the “5 Day Visual Score V1” value is reported as “Dead”.

Staying with this assay, now noted: dose response, dilution V2, day 5.
Consider `FC(F)(F)c1cccc(N2CCN(c3nc(NCC4CCCCC4)ns3)CC2)c1` [compound 226], for which the “5 Day Visual Score V2” value is “˜B (moderate broodsize (100-250 progeny))”.

Regarding `Cc1cccc(C)c1N1CCN(c2nsc(N3CCN(c4c(C)cccc4C)CC3)n2)CC1` [compound 227], the “5 Day Visual Score V2” value was “Dead”.

Regarding `CCN(c1nc(N2CCN(c3c(C)cccc3C)CC2)ns1)C1CCCCC1` [compound 228], the “5 Day Visual Score V2” value is given as “Dead”.

The same assay, now with this note: dose response, dilution V3, day 5.
For the compound `FC(F)(F)c1cccc(N2CCN(c3nc(NCC4CCCCC4)ns3)CC2)c1` [compound 226], the “5 Day Visual Score V3” value is on record as “OK (no effect (˜1000+ progeny))”.

With `Cc1cccc(C)c1N1CCN(c2nsc(N3CCN(c4c(C)cccc4C)CC3)n2)CC1` [compound 227], the “5 Day Visual Score V3” value was “OK (no effect (˜1000+ progeny))”.

On to `CCN(c1nc(N2CCN(c3c(C)cccc3C)CC2)ns1)C1CCCCC1` [compound 228], for which the “5 Day Visual Score V3” value is on record as “OK (no effect (˜1000+ progeny))”.

As for `CCCCCCCCCCCCCCCCCCN(C)c1nc(N2CCN(c3c(C)cccc3C)CC2)ns1` [compound 229], the “5 Day Visual Score V3” value is recorded as “#AD/˜B”.

Still in this assay, the particulars now being: dose response, dilution V4, day 5.
Consider `FC(F)(F)c1cccc(N2CCN(c3nc(NCC4CCCCC4)ns3)CC2)c1` [compound 226], for which the “5 Day Visual Score V4” value was “OK (no effect (˜1000+ progeny))”.

On to `Cc1cccc(C)c1N1CCN(c2nsc(N3CCN(c4c(C)cccc4C)CC3)n2)CC1` [compound 227], for which the “5 Day Visual Score V4” value was “OK (no effect (˜1000+ progeny))”.

Turning to `CCN(c1nc(N2CCN(c3c(C)cccc3C)CC2)ns1)C1CCCCC1` [compound 228], the “5 Day Visual Score V4” value is listed as “OK (no effect (˜1000+ progeny))”.

On to `CCCCCCCCCCCCCCCCCCN(C)c1nc(N2CCN(c3c(C)cccc3C)CC2)ns1` [compound 229], for which the “5 Day Visual Score V4” value was “OK (no effect (˜1000+ progeny))”.

For `CCCCC(CC)CN(CC(CC)CCCC)c1nc(N2CCN(c3c(C)cccc3C)CC2)ns1` (stereo not shown) [compound 230], the “5 Day Visual Score V4” value is “< (reduced broodsize (250-500 progeny))”.

Staying with this assay, now noted: dose response, dilution V5, day 5.
As to `FC(F)(F)c1cccc(N2CCN(c3nc(NCC4CCCCC4)ns3)CC2)c1` [compound 226], the “5 Day Visual Score V5” value is recorded as “OK (no effect (˜1000+ progeny))”.

Regarding `Cc1cccc(C)c1N1CCN(c2nsc(N3CCN(c4c(C)cccc4C)CC3)n2)CC1` [compound 227], the “5 Day Visual Score V5” value is recorded as “OK (no effect (˜1000+ progeny))”.

As for `CCN(c1nc(N2CCN(c3c(C)cccc3C)CC2)ns1)C1CCCCC1` [compound 228], the “5 Day Visual Score V5” value is listed as “OK (no effect (˜1000+ progeny))”.

As for `CCCCCCCCCCCCCCCCCCN(C)c1nc(N2CCN(c3c(C)cccc3C)CC2)ns1` [compound 229], the “5 Day Visual Score V5” value was “OK (no effect (˜1000+ progeny))”.

In the case of `CCCCC(CC)CN(CC(CC)CCCC)c1nc(N2CCN(c3c(C)cccc3C)CC2)ns1` (stereo not shown) [compound 230], the “5 Day Visual Score V5” value is on record as “OK (no effect (˜1000+ progeny))”.

Staying with this assay, now noted: dose response, dilution V6, day 5.
As for `FC(F)(F)c1cccc(N2CCN(c3nc(NCC4CCCCC4)ns3)CC2)c1` [compound 226], the “5 Day Visual Score V6” value is “OK (no effect (˜1000+ progeny))”.

`Cc1cccc(C)c1N1CCN(c2nsc(N3CCN(c4c(C)cccc4C)CC3)n2)CC1` [compound 227]: the “5 Day Visual Score V6” value was “OK (no effect (˜1000+ progeny))”.

For the compound `CCN(c1nc(N2CCN(c3c(C)cccc3C)CC2)ns1)C1CCCCC1` [compound 228], the “5 Day Visual Score V6” value is “OK (no effect (˜1000+ progeny))”.

`CCCCCCCCCCCCCCCCCCN(C)c1nc(N2CCN(c3c(C)cccc3C)CC2)ns1` [compound 229]: the “5 Day Visual Score V6” value was “OK (no effect (˜1000+ progeny))”.

`CCCCC(CC)CN(CC(CC)CCCC)c1nc(N2CCN(c3c(C)cccc3C)CC2)ns1` (stereo not shown) [compound 230]: the “5 Day Visual Score V6” value is given as “OK (no effect (˜1000+ progeny))”.

Source of the values: US20020002171A1, “Materials and methods for killing nematodes and nematode eggs” (priority 2000, published 2002).
